Measured values as given in US6608069B1, “Phenyl xanthine derivatives” (SmithKline Beecham Corporation, priority 1998, dated 2003).

System: cytokine-stimulated human umbilical vein endothelial cells
Assay: Cell Adhesion Assay: adherence of fluorescently-labelled leukocytes to endothelial cell monolayers
Type: cell-based
Conditions: inhibition of cytokine-stimulated adhesion minus basal adhesion; calcein-AM labelled leukocytes on HUVEC monolayers
Procedure: The antiadhesion activity of compounds of the invention was determined using a modification of the previously described method, Jurgensen, C. H. et. al., J. Immunol. 144: 653-661. The adhesiveness of cytokine-stimulated human umbilical vein endothelial cells was assessed by quantitating the adherence of fluorescently-labelled (calcein-AM, Molecular Probes, Eugene, Oreg.) leukocytes to endothelial cell monolayers. Activity was determined by calculating inhibition of cytokine-stimulated adhesion minus the basal adhesion (unstimulated).

For `COCCOCCOCCOCCOCCOCCOCCOCCOCCOC(=O)/C=C/c1ccc(-c2nc3c(=O)n(CC(C)C)c(=O)n(CC(C)C)c3[nH]2)cc1` [Example 43, (E)-4-(1,3-bis(2-methylpropyl)-1,2,3,6-tetrahydro-2,6-dioxo-9H-purin-8-yl)cinnamic Acid Nonaethylene Glycol Methyl Ether Ester], which IC50 is on record?
Its IC50 is 7.1 ± 2 nM.

`COCCOCCOCCOCCOCCOCCOCCOCCOCCOC(=O)CCc1ccc(-c2nc3c(c(=O)n(CC4CCCCC4)c(=O)n3CC3CCCCC3)n2C)cc1` [Example 90, 4-[(1,3-Bis(cyclohexylmethyl)-2,3,6,7-tetrahydro-2,6-dioxo-7-methyl-1H-purin-8-yl)phenyl] propionic Acid Nonaethylene Glycol Methyl Ether Ester] was tested. Which IC50 did it give?
The IC50 was 240 ± 140 nM.

How did the IC50 turn out when `COCCOCCOCCOCCOCCOCCOCCOCCOCCOC(=O)/C=C/c1ccc(-c2nc3c([nH]2)c(=O)n(CC2CCCCC2)c(=O)n3CC2CCCCC2)s1` [Example 98, (E)-3-[5-[1,3-bis(cyclohexylmethyl)-2,3,6,7-tetrahydro-2,6-dioxo-1H-purin-8-yl]-2-thienyl]-2-propenoic Acid Nonaethylene Glycol Methyl Ether Ester] was run?
The IC50 was 37 ± 23 nM.

For `COCCOCCOCCOCCOCCOCCOCCOCCOCCOC(=O)/C=C/c1ccc(-c2nc3c(=O)n(CC4CC5CCC4C5)c(=O)n(CC4CC5CCC4C5)c3[nH]2)cc1` (stereo not shown) [Example 45, (E)-4-(1,3-bis(bicyclo(2.2.1)hept-2-ylmethyl)-1,2,3,6-tetrahydro-2,6-dioxo-9H-purin-8-yl)cinnamic Acid Nonaethylene Glycol Methyl Ether Ester], which IC50 is on record?
Its IC50 is 42 ± 24 nM.

With `COCCOCCOCCOCCOCCOCCOCCOCCOCCNC(=O)/C=C/c1ccc(-c2nc3c(c(=O)n(CC4CCCCC4)c(=O)n3CC3CCCCC3)n2C)cc1` [Example 91, (E)-4-(1,3-Bis(cyclohexylmethyl)-2,3,6,7-tetrahydro-2,6-dioxo-7-methyl-1H-purin-8-yl)cinnamic Acid Nonaethylene Glycol Methyl Ether Amide] as the molecule, how does the IC50 read?
The IC50 was 60 ± 29 nM.

For `COCCOCCOCCOCCOCCOCCOCCOCCOCCOC(=O)/C=C/c1ccc(-c2nc3c(=O)n(C4CCCCC4)c(=O)n(C4CCCCC4)c3[nH]2)cc1` [Example 66, (E)-4-[1,3-Bis(cyclohexyl)-1,2,3,6-tetrahydro-2,6-dioxo-9H-purin-8-yl]cinnamic Acid Nonaethylene Glycol Methyl Ether Ester], which IC50 is on record?
The IC50 was 230 ± 100 nM.

For `COCCOCCOCCOCCOCCOCCOCCOCCOCCOC(=O)/C=C/c1ccc(-c2nc3c(=O)n(CCC4CCCCC4)c(=O)n(CCC4CCCCC4)c3[nH]2)cc1` [Example 41, (E)-4-(1,3-bis(2-cyclohexylethyl)-1,2,3,6-tetrahydro-2,6-dioxo-9H-purin-8-yl)cinnamic Acid Nonaethylene Glycol Methyl Ether Ester], which IC50 is on record?
Its IC50 is 21 ± 12 nM.

With `COCCOCCOCCOCCOCCOCCOCCOCCOCCNCc1ccc(-c2nc3c(=O)n(CC4CCCCC4)c(=O)n(CC4CCCCC4)c3[nH]2)cc1` [Example 108, 4-[1,3-Bis(cyclohexylmethyl)-1,2,3,6-tetrahydro-2,6-dioxo-9H-purin-8-yl]benzylamine N-Nonaethylene Glycol Methyl Ether] as the molecule, how does the IC50 read?
Its IC50 is 300 ± 82 nM.

How did the IC50 turn out when `COCCOCCOCCOCCOCCOCCOCCOCCOCCOC(=O)/C=C/c1ccc(-c2nc3c(c(=O)n(C)c(=O)n3CC3CCCCC3)n2C)cc1` [Example 105, (E)-4-[(3-Cyclohexylmethyl)-2,3,6,7-tetrahydro-2,6dioxo-1,7-dimethyl-1H-purin-8-yl]cinnamic Acid Nonaethylene Glycol Methyl Ether Ester] was run?
Its IC50 is 200 ± 80 nM.

`COCCOCCOCCOCCOCCOCCOCCOCCOCCOC(=O)/C=C/c1ccc(-c2nc3c(=O)n(-c4ccccc4)c(=O)n(-c4ccccc4)c3[nH]2)cc1` [Example 42, (E)-4-(1,3-bis(phenyl)-1,2,3,6-tetrahydro-2,6-dioxo-9H-purin-8-yl)cinnamic Acid Nonaethylene Glycol Methyl Ether Ester] was tested. Which IC50 did it give?
The IC50 was 12 ± 12 nM.
